Experimental data taken from patent US20230143604A1, “QW DOSING OF GIP RECEPTOR AGONIST PEPTIDE COMPOUNDS AND USES THEREOF” (TAKEDA PHARMACEUTICAL COMPANY LIMITED, priority 2020, published 2023).
Starred links: 1 amine or outer side, 2 acyl side, 3 side chain; linkers in the order of their positions; H or OH if unused. Non-standard residues stand in square brackets, D forms with d. Residues, ends and D or L forms follow the SMILES beside them. Groups on a side chain read outwards from the residue. *: point of attachment. C17 diacid = O=C(O)CCCCCCCCCCCCCCCC(=O)*; γGlu = O=C(O)[C@H](CCC(=O)[*:2])N[*:1]; NMeY = CN[C@@H](Cc1ccc(O)cc1)C(=O)O; AEEA = NCCOCCOCC(=O)O; Aib = CC(C)(N)C(=O)O

Assay: physchem
Conditions: pH 7.4, aqueous buffer
Method in brief: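 Solubility at pH 7.4 determined by stepwise addition of 200 mM phosphate buffer in 100 μL increments to 3 mg peptide, mixing briefly each time, until no insoluble material remained, then measured by liquid chromatography.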

`CC[C@H](C)[C@H](NC(=O)[C@H](CO)NC(=O)[C@H](Cc1ccc(O)cc1)NC(=O)[C@H](CC(=O)O)NC(=O)[C@H](CO)NC(=O)[C@@H](NC(=O)[C@H](Cc1ccccc1)NC(=O)[C@@H](NC(=O)CNC(=O)[C@H](CCC(=O)O)NC(=O)C(C)(C)NC(=O)[C@H](Cc1ccc(O)cc1)NC)[C@@H](C)O)[C@@H](C)CC)C(=O)N[C@@H](C)C(=O)N[C@@H](CC(C)C)C(=O)N[C@@H](CC(=O)O)C(=O)N[C@@H](CCCNC(=N)N)C(=O)NC(C)(C)C(=O)N[C@@H](CCCCNC(=O)COCCOCCNC(=O)COCCOCCNC(=O)CC[C@H](NC(=O)CC[C@H](NC(=O)CCCCCCCCCCCCCCCC(=O)O)C(=O)O)C(=O)O)C(=O)N[C@@H](CCC(N)=O)C(=O)NC(C)(C)C(=O)N[C@@H](CC(N)=O)C(=O)N[C@@H](Cc1ccccc1)C(=O)N[C@H](C(=O)N[C@@H](CC(N)=O)C(=O)N[C@@H](Cc1c[nH]c2ccccc12)C(=O)N[C@@H](CC(C)C)C(=O)N[C@@H](CC(C)C)C(=O)N[C@@H](C)C(=O)N[C@@H](CCC(N)=O)C(=O)N[C@@H](CCCNC(=N)N)C(N)=O)C(C)C` [Compound 256] (H-[NMeY][Aib]EGTFISDYSIALDR[Aib]K([AEEA-AEEA-γGlu-γGlu-C17 diacid])Q[Aib]NFVNWLLAQR-NH2) and `CC[C@H](C)[C@H](NC(=O)[C@H](CO)NC(=O)[C@H](Cc1ccc(O)cc1)NC(=O)[C@H](CC(=O)O)NC(=O)[C@H](CO)NC(=O)[C@@H](NC(=O)[C@H](Cc1ccccc1)NC(=O)[C@@H](NC(=O)CNC(=O)[C@H](CCC(=O)O)NC(=O)C(C)(C)NC(=O)[C@H](Cc1ccc(O)cc1)NC)[C@@H](C)O)[C@@H](C)CC)C(=O)N[C@@H](C)C(=O)N[C@@H](CC(C)C)C(=O)N[C@@H](CC(=O)O)C(=O)N[C@@H](CCCNC(=N)N)C(=O)NC(C)(C)C(=O)N[C@@H](Cc1c[nH]cn1)C(=O)N[C@@H](CCC(N)=O)C(=O)NC(C)(C)C(=O)N[C@@H](CCCCNC(=O)COCCOCCNC(=O)COCCOCCNC(=O)CC[C@H](NC(=O)CC[C@H](NC(=O)CCCCCCCCCCCCCCCC(=O)O)C(=O)O)C(=O)O)C(=O)N[C@@H](Cc1ccccc1)C(=O)N[C@H](C(=O)N[C@@H](CC(N)=O)C(=O)N[C@@H](Cc1c[nH]c2ccccc12)C(=O)N[C@@H](CC(C)C)C(=O)N[C@@H](CC(C)C)C(=O)N[C@@H](C)C(=O)N[C@@H](CCC(N)=O)C(=O)N[C@@H](CCCNC(=N)N)C(N)=O)C(C)C` [Compound 257] (H-[NMeY][Aib]EGTFISDYSIALDR[Aib]HQ[Aib]K([AEEA-AEEA-γGlu-γGlu-C17 diacid])FVNWLLAQR-NH2) cannot be ordered by solubility: no less than 6000 µg/mL for the first, no less than 7500 µg/mL for the second.

Work on `CC[C@H](C)[C@H](NC(=O)[C@H](CO)NC(=O)[C@H](Cc1ccc(O)cc1)NC(=O)[C@H](CC(=O)O)NC(=O)[C@H](CO)NC(=O)[C@@H](NC(=O)[C@H](Cc1ccccc1)NC(=O)[C@@H](NC(=O)CNC(=O)[C@H](CCC(=O)O)NC(=O)C(C)(C)NC(=O)[C@H](Cc1ccc(O)cc1)NC)[C@@H](C)O)[C@@H](C)CC)C(=O)N[C@@H](C)C(=O)N[C@@H](CC(C)C)C(=O)N[C@@H](CC(=O)O)C(=O)N[C@@H](CCCNC(=N)N)C(=O)NC(C)(C)C(=O)N[C@@H](Cc1c[nH]cn1)C(=O)N[C@@H](CCC(N)=O)C(=O)NC(C)(C)C(=O)N[C@@H](CC(N)=O)C(=O)N[C@@H](Cc1ccccc1)C(=O)N[C@H](C(=O)N[C@@H](CC(N)=O)C(=O)N[C@@H](Cc1c[nH]c2ccccc12)C(=O)N[C@@H](CC(C)C)C(=O)N[C@@H](CC(C)C)C(=O)N[C@@H](C)C(=O)N[C@@H](CCCCNC(=O)COCCOCCNC(=O)COCCOCCNC(=O)CC[C@H](NC(=O)CC[C@H](NC(=O)CCCCCCCCCCCCCCCC(=O)O)C(=O)O)C(=O)O)C(=O)N[C@@H](CCCNC(=N)N)C(N)=O)C(C)C` [Compound 258] (H-[NMeY][Aib]EGTFISDYSIALDR[Aib]HQ[Aib]NFVNWLLAK([AEEA-AEEA-γGlu-γGlu-C17 diacid])R-NH2) yielded a solubility of no less than 6000 µg/mL.
